Values quoted from earlier work, collected in patent US8916562B2, “Methods and compositions for safe and effective treatment of telangiectasia” (Galderma Research & Development SNC, priority 2010, dated 2014).

Details: brimonidine ophthalmic treatment, clinical trials

In the case of `Brc1c(NC2=NCCN2)ccc2nccnc12` [brimonidine, (5-bromo-quinoxalin-6-yl)-(4,5-dihydro-1H-imidazol-2-yl)-amine], the “patients reporting hypertension, palpitations and syncope” value is listed as “less than 3%”.
